Results from patent US20170087174A1, “COMBINATION THERAPY REGIMEN FOR TREATMENT OF HCV” (JANSSEN PHARMACEUTICALS, INC., priority 2015, published 2017).
Like-named read-outs stand apart in the source and are kept apart here.

How the values were obtained:
[1] = test system: CYP (cytochrome P450 enzymes); test: CYP inhibition in vitro
[2] = PK of single agents vs fixed dose combinations (FDC), single oral dose in healthy volunteers; type: in vivo, human; settings: for Cmax / AUC(0-t) / AUC(0-inf) / Tmax: human, plasma, oral; for Cmax: read-out: Cmax (mean ± SD); for AUC(0-t): read-out: AUClast (mean ± SD); for AUC(0-inf): read-out: AUC∞ (mean ± SD); for Tmax: read-out: tmax (median [range])
Protocol: SMV (100 mg), ODV (50 mg), and Compound (III) (800 mg) were administered as three different formulations or together as single doses in vivo to healthy volunteers. The arms of the study included: • Arm 1 (Reference Arm): Single oral doses of single agents, one SMV 100-mg capsule, one ODV 50-mg tablet as granule layered solid dispersion with copovidone and poloxamers, and two Compound (III) 400-mg tablets, administered together. • Arm 2: Single oral dose of fixed dose combination (FDC02): SMV 100 mg+ODV 50 mg as a spray dried solid dispersion with HPMC-AS L in a ratio ODV/HPMC-AS L 1/1 w/w+Compound (III) 800 mg • Arm 3: Single oral dose of fixed dose combination (FDC04): SMV 100 mg+ODV 50 mg as a spray dried solid dispersion with HPMC-AS L in a ratio ODV/HPMC-AS L 1/3 w/w+Compound (III) 800 mg • Arm 4: Single oral dose of fixed dose combination (FDC01): SMV 100 mg+ODV 50 mg as a spray dried solid dispersion with copovidone and poloxamers+Compound (III) 800 mg
PK parameters, including Cmax, tmax, AUClast, and AUC∞ were measured for Compound (III), ODV, SMV, and metabolites Compound A-I and Compound A-3 for each Arm of the study. Arms that included fixed dose combinations (FDC) (Arm 2, Arm 3, and Arm 4) were then compared to a single oral dose (Arm 1, the reference Arm). Table 9, Table 10, Table 11, Table 12 and Table 13 display relevant PK parameters and FIG. 9, FIG. 10, FIG. 11, FIG. 12, and FIG. 13 depict the plasma concentration over time of SMV, ODV, Compound A-1, and Compound A-3 for each Arm of the study.

[3] = Phase 2a open-label combination study: pharmacokinetics (exposure); type: in vivo, human; settings: in vivo
Protocol: A randomized, Phase 2a, open-label study was carried out to evaluate the safety, pharmacokinetics and efficacy of the combination of Compound (III), Odalasvir and Simeprevir in Genotype 1 treatment-naïve subjects with chronic hepatitis C. Other treatment-naïve subjects included Genotype 2, 3, 4, 5 and 6.
The aim of the study was to determine the efficacy, pharmacokinetics (PK), and safety of Compound (III)+Odalasvir±SMV in HCV-infected subjects.
This was an open-label study evaluating various dosing regimens of Compound (III)+Odalasvir±SMV for 6-8 weeks in treatment-naïve HCV-infected subjects with varying clinical characteristics (e.g., GT 1 or 3, presence/absence of compensated Child Pugh A cirrhosis). Efficacy, PK and safety evaluations were conducted during and through 24 weeks post dosing. Up to 15 cohorts were enrolled; data was generated from cohorts that have completed dosing.

[4] = Arm 1 (reference): single agents together
[5] = Arm 2 (FDC02) vs reference (Arm 1)
[6] = Arm 3 (FDC04) vs reference (Arm 1)
[7] = Arm 4 (FDC01) vs reference (Arm 1)
[8] = Arm 1 (reference): single agents together, SMV 100-mg capsule, ODV 50-mg tablet, two Compound (III) 400-mg tablets
[9] = Arm 2: FDC02, SMV 100 mg + ODV 50 mg (ODV/HPMC-AS L 1/1 w/w) + Compound (III) 800 mg
[10] = Arm 3: FDC04, SMV 100 mg + ODV 50 mg (ODV/HPMC-AS L 1/3 w/w) + Compound (III) 800 mg
[11] = Arm 4: FDC01, SMV 100 mg + ODV 50 mg (copovidone and poloxamers) + Compound (III) 800 mg

IC50 [1]	t1/2term (mean ± SD) [2, 4]	Least Square Means Ratio, AUClast [2, 5]	Least Square Means Ratio, Cmax [2, 5]	t1/2term (mean ± SD) ([2]; Arm 2: FDC02)	Least Square Means Ratio, AUClast [2, 6]	Least Square Means Ratio, Cmax [2, 6]	t1/2term (mean ± SD) ([2]; Arm 3: FDC04)	Least Square Means Ratio, AUClast [2, 7]	Least Square Means Ratio, Cmax [2, 7]	t1/2term (mean ± SD) ([2]; Arm 4: FDC01)	Cmax [2, 8]	AUC(0-t) [2, 4]	AUC(0-inf) [2, 4]	Tmax [2, 4]	Cmax [2, 9]	AUC(0-t) ([2]; Arm 2: FDC02)	AUC(0-inf) ([2]; Arm 2: FDC02)	Tmax ([2]; Arm 2: FDC02)	Cmax [2, 10]	SMILES	also measured
> 48 µM	2.6 ± 1.4 h	103.24%	102.81%	2.3 ± 0.6 h	115.78%	119.82%	2.9 ± 1.5 h	116.82%	123.77%	2.5 ± 0.7 h	163 ± 61.8 ng/mL	800 ± 307 ng·h/mL	823 ± 311 ng·h/mL	3 h	163 ± 45.2 ng/mL	790 ± 157 ng·h/mL	817 ± 133 ng·h/mL	3 h	189 ± 49.7 ng/mL	C[C@H](NP(=O)(O)OC[C@@]1(F)O[C@@H](n2ccc(=O)[nH]c2=O)[C@](C)(O)[C@@H]1O)C(=O)O [Compound A-3]	Least Square Means Ratio, AUC∞ [2, 5]: 104.40%; Least Square Means Ratio, AUC∞ [2, 6]: 114.92%; Least Square Means Ratio, AUC∞ [2, 7]: 115.62%; AUC(0-t) ([2]; Arm 3: FDC04): 895 ± 223 ng·h/mL; AUC(0-inf) ([2]; Arm 3: FDC04): 914 ± 226 ng·h/mL; Tmax ([2]; Arm 3: FDC04): 3.5 h; Cmax [2, 11]: 197 ± 62.1 ng/mL; AUC(0-t) ([2]; Arm 4: FDC01): 909 ± 244 ng·h/mL; AUC(0-inf) ([2]; Arm 4: FDC01): 926 ± 245 ng·h/mL; Tmax ([2]; Arm 4: FDC01): 4 h
> 40 µM	19.6 ± 2.7 h	118.54%	133.00%	20.5 ± 3.3 h	121.29%	119.83%	20.2 ± 3.5 h	120.45%	121.37%	18.3 ± 3.5 h	498 ± 154 ng/mL	3910 ± 1150 ng·h/mL	4530 ± 1800 ng·h/mL	4 h	681 ± 268 ng/mL	4680 ± 1550 ng·h/mL	4370 ± 1340 ng·h/mL	4 h	598 ± 192 ng/mL	C[C@]1(O)[C@H](n2ccc(=O)[nH]c2=O)O[C@](F)(CO)[C@H]1O [Compound A-1]	AUC(0-t) ([2]; Arm 3: FDC04): 4710 ± 1310 ng·h/mL; AUC(0-inf) ([2]; Arm 3: FDC04): 5380 ± 1560 ng·h/mL; Tmax ([2]; Arm 3: FDC04): 4 h; Cmax [2, 11]: 607 ± 208 ng/mL; AUC(0-t) ([2]; Arm 4: FDC01): 4690 ± 1420 ng·h/mL; AUC(0-inf) ([2]; Arm 4: FDC01): 4560 ± 787 ng·h/mL; Tmax ([2]; Arm 4: FDC01): 4 h; increase of exposure with dose [3]: less than proportionally
